Laboratory results as given in patent EP0240854A1, “Bis-tert-butylamino-substituted 1,3,5-triazine derivatives, process for their preparation, medicaments containing these compounds, and their use” (HOECHST AKTIENGESELLSCHAFT, priority 1986, dated 1987).

Assays:
[1] = tested on: Elektroschock-induzierte Krämpfe; assay: Antagonism against electroshock-induced convulsions (Swinyard); type: in vivo; conditions: Mus musculus, po, electroshock via corneal electrodes 1 h after test substance, tonic extensor convulsions; read-out: ECS Maus ED 50
Description: (§1) Die Krampf-verhindernde (antikonvulsive) Wirkung der erfindungsgemäßen Verbindungen wurde an Mäusen gegen Pentetrazol- und gegen Elektroschock- induzierte Krämpfe in der Anordnung von SWINYARD geprüft.
2. Antagonismus gegen Elektroschock-induzierte Krämpfe (Maus).
Methode (E.A.SWINYARD, In: Experimental Models of Epilepsy, Raven Press, New York, 1972, p. 433-458):
Gruppen von 6 männlichen Mäusen (Stamm: NMRI, SPF-71, KF) im Gewicht von 18-22 g werden in diesem Versuch verwendet. Die zu prüfenden Substanzen werden in einer 1 %igen Aufschwemmung von Tylose (Methyl-hydroxy-ethyl-cellulose) in Wasser suspendiert und per Schlundsonde in einem Volumen von 10 ml/kg Körpergewicht oral verabreicht. Die Kontrollgruppe erhält ein entsprechendes Volumen Tylosesuspension ohne Prüfsubstanz. Eine Stunde nach Prüfsubstanzgabe wird den Tieren über Cornea-Elektroden ein Elektroschock verabreicht (Stromstärke 12-22 mA, Dauer 0,2 sec, 50 Hz), nachdem vorher an einer zweiten Kontrollgruppe die Stromstärke ermittelt worden war, die bei 100 % der Tiere eine tonischen Extensorkrampf der hinteren Extremitäten hervorruft. Die Anzahl der durch die Prüfsubstanz vor einem Extensorkrampf geschützten Tiere dient als Mass der antikonvulsiven Wirkung in diesem Test. Bei vorhandener Schutzwirkung der Prüfsubstanz wird eine mittlere effektive Dosis (ED-50) grafisch (Litchfield and Wilcoxon) oder rechnerisch (Probitanalyse) ermittelt.

Wistar Ratten [2] = assay: Geller-Seifter conflict test; type: in vivo, Ratte; conditions: for minimal effective dose: Rattus norvegicus, po, 0.5 h, p.o., 30 min before test, lowest dose with significant change of lever press rate, read-out: Geller Ratte MED
Description: (§2) Die Angst-lösende (anxiolytische Wirkung) der erfindungsgemäßen Verbindungen wurde im "Lick-shock-conflict- Test" nach VOGEl und im "Geller-Seifter-Konflikt-Test" nach GELLER und SEIFTER an WISTAR-Ratten geprüft.
4. Geller-Seifter-Konflikt-Test
Methode (Geller, I.und Seifter, J., Psychopharmacologia 1 (1962), 482):
Männliche Wistar Ratten aus eigener Aufzucht (SPF Hattersheim) im Gewicht zwischen 240 und 370 g werden verwendet und Versuchsgruppen zu je 8 Tieren zugeordnet. Je 4 Tiere werden in Plastikkäfigen (56x38x20 cm) zusammengesetzt und durch abgewogene Futtermengen auf ca. 80 % ihres normalen Körpergewichts gehalten.
Die Tiere werden trainiert, in einer SKINNER-Box eine Taste zu drücken, um eine Belohnung in Form von gesüßter Kondensmilch zu erhalten. Die Box enthält zwei Tasten mit Mikroschaltern, einen Lautsprecher, ein Hauslicht, zwei Signallichter über den Tasten sowie einen Fußboden aus Metallstäben. Das Trainingsschema wurde der Arbeit von GELLER und SEIFTER (1962) in der Modifikation von DAVIDSON & COOK (Psychopharmacologia 15 (1969), 159-168) entlehnt: Jede Sitzung besteht aus vier 15-Minuten-Abschnitten, die alle aus einer 12-minütigen "Variable Interval" (VI) Phase und einer 3-minütigen "Fixed ration" (FR) Phase zusammengesetzt sind. Während der VI-Phase erhalten die Tiere auf Tastendruck Milchbelohnungen in einem durch einen Zufallsgenerator gesteuerten Intervall von 10-110 sec. mit einem Mittelwert um 60 15 sec. Während der FR-Phase erhalten die Tiere für jeden Tastendruck eine Belohnung, zusätzlich wird jedoch bei jedem 3. Tastendruck ein schmerzhafter elektrischer Reiz über die Fussbodenstäbe verabreicht, um eine Konfliktsituation zu erzeugen. Die Stromstärke des elektrischen Reizes wird für jedes Tier individuell so eingestellt (0,3-0,6 mA), daß die Tastendruckrate in der gesamten FR-Phase zwischen 5 und 15 liegt.
Das Training findet an 5 Tagen in der Woche statt, Versuche mit Prüfsubstanzen werden einmal wöchentlich durchgeführt. Da die Tiere als ihre eigene Kontrolle dienen, werden vor jedem Versuch mit Prüfsubstanzen mindestens zwei Vorwerte ohne Prüfsubstanz durchgeführt. Die zu prüfenden Verbindungen werden in einem 1 %igen Tylose-Gel suspendiert und 30 min vor Testbeginn oral per Schlundsonde in einem Volumen von 2 ml/kg verabreicht. Veränderungen der Tastendruckrate in der VI-Phase werden als Beeinflussung der motorischen Aktivität und Steigerung der Tastendruckrate in der FR-Phase werden als Anzeichnen für eine "Antikonflikt-" bzw. "anxiolytische" Wirkung gewertet. Bestimmt wird meist die minimal effektive Dosis (MED) der Prüfsubstanz, d.i. die niedrigste geprüfte Dosis, die noch eine statistisch signifikante Änderung der Tastendruckrate bewirkt (p=0,05; WILCOXON matched pairs signed rank test).

[3] = tested on: Pentetrazol-induzierte Krämpfe; assay: Antagonism against pentetrazol-induced convulsions (Swinyard); type: in vivo, Maus; conditions: p.o., pentetrazol 125 mg/kg s.c. 1 h after test substance, tonic extensor convulsions; for ED50: Mus musculus, po, 1 h, read-out: Ptz Maus ED 50
Description: as §1
1. Antagonismus gegen Pentetrazol-induzierte Krämpfe (Maus)
Methode (E.A.SWINYARD, J.Pharmacol.Exp.Ther. 106, (1952), 319-330):
Gruppen von 10 männlichen Mäusen (Stamm: NMRI, SPF-71, KF) im Gewicht von 18-22 g werden in diesem Versuch verwendet. Die zu prüfenden Substanzen werden in einer 1 %-igen Aufschwemmung von ®Tylose (Methyl-hydroxy-ethyl-cellulose) in Wasser suspendiert und per Schlundsonde in einem Volumen von 10 ml/kg Körpergewicht oral verabreicht. Die Kontrollgruppe erhält ein entsprechendes Volumen Tylosesuspension ohne Prüfsubstanz. Pentetrazol (Cardiazol®) wird in wässriger Lösung in einer Dosis von 125 mg/kg Körpergewicht 1 Stunde nach Verabreichung der Prüfsubstanzen subcutan injiziert. Diese Dosis erzeugt bei 90-100 % der Kontrolltiere innerhalb der Beobachtungszeit von 60 Minuten nach der Injektion tonische Extensorkrämpfe der hinteren Extremitä-ten. Als Schutzwirkung der Prüfsubstanz wird gewertet, wenn die Anzahl der krampfenden Tiere gegenüber der Kontrollgruppe vermindert ist. Bei vorhandener Schutzwirkung der Prüfsubstanz wird eine mittlere effektive Dosis (ED-50) grafisch (Litchfield and Wilcoxon) oder rechnerisch (Probitanalyse) ermittelt.

Wistar Ratten [4] = assay: Lick-shock-conflict test (Vogel); type: in vivo, Ratte; conditions: Rattus norvegicus, po; for minimal effective dose: lowest dose with significant increase of lickings in the shock phase, read-out: Lick-Sh. Ratte MED; for change in vivo at 10 mg/kg: 10 mg/kg p.o.; for change in vivo at 10 mg/kg / change in vivo at 30 mg/kg: increase versus control group, read-out: Lick-Sh. Ratte prozentuale Zunahme der angenommenen Belohnungen (Wasser); for change in vivo at 30 mg/kg: 30 mg/kg p.o.
Description: as §2
3. Lick-shock-conflict-Test
Methode (VOGEL, J.R., Psychopharmacologia 21, (1971), 1-7
Männliche Wistar Ratten aus eigener Aufzucht (SPF Hattersheim) im Gewicht zwischen 90 und 120 g werden verwendet. Den Tieren wird für 48 Stunden vor Testbeginn das Trinkwasser entzogen. Zum Test werden die Tiere in eine Plastikbox (14x12x28 cm, BxTxH) gesetzt, die mit einer Wasserflasche mit Metall-Trinkrohr ausgestattet ist und die außerdem erlaubt, über eine elektronische Schaltung die Anzahl der Kontakte der Zunge des Tieres mit dem Trinkrohr zu messen. Der Boden der Box besteht aus Metallstäben, die durch die Steuerungselektronik unter Strom gesetzt werden können. Die Tiere haben nach dem Einsetzen in die Box 5 min. Zeit, um das Trinkrohr zu finden und 50-mal daran zu lekken. Tiere, die das Trinkrohr innerhalb dieser Zeit nicht gefunden haben, werden für den Versuch nicht verwendet. Nach diesen 50 Leckvorgängen (lickings) werden Trinkrohr und Bodenstäbe für jeweils 5 sec unter Strom gesetzt (Gleichstrom 300 µA) und dann für weitere 5 sec. wieder freigegeben. Diese Folge wird alternierend für eine Zeit von 5 min. weitergeführt, wobei die Zahl der Trinkrohr-Kontakte des Tieres während der Reizstrom- und der reizstromfreien Phase auf verschiedenen elektronischen Zählern registriert werden.
Gruppen von jeweils acht Tieren pro Dosis werden mit den Prüfsubstanzen, die in einem 1 %igen Tylose-Gel aufgeschwemmt sind, oral per Schlundsonde behandelt. Das Injektionsvolumen beträgt 5 ml/kg Körpergewicht. Die Prüfung in der obg. Testapparatur erfolgt 1 und 2 Std. nach Applikation der Prüfsubstanzen. Die Anzahl der Trinkrohr-Kontakte in der Reizstrom-Phase dient als Prüf-Variable. Die mittlere Anzahl der Kontakte in dieser Phase bei der Kontrollgruppe wird zu 100 % gesetzt und Zu- oder Abnahme der Kontaktzahl bei den mit Prüfsubstanz behandelten Tieren wird prozentual in Bezug auf die Kontrollgruppe ausgedrückt.
Anxiolytika bewirken in diesem Test gewöhnlich eine deutliche Zunahme der Wasseraufnahme (lickings) in der Reizstrom-Phase gegenüber den unbehandelten Kontrollen. Falls eine lineare oder logarithmische Beziehung zwischen Dosis und Wirkung gegeben ist, wird eine ED + 100 (d.i. die Dosis, die eine Zunahme der Wasseraufnahme um 100 % gegenüber der Kontrollgruppe bewirkt) mittels Regressionsanalyse errechnet. Ist eine lineare Dosisabhängigkeit nicht gegeben, so wird eine minimal effektive Dosis (MED) bestimmt, d.i. die niedrigste Dosis der Prüfsubstanz, die noch eine statistisch signifikante Zunahme der Wasseraufnahme im Vergleich zur Kontrollgruppe bewirkt (p=0,05, DUNNET-Test).

In the case of `CC(C)(C)Nc1nc(NC(C)(C)C)nc(N2CCCCC2)n1` [Beispiel 1, 2,4-Bis-(tert.butylamino)-6-piperidino-1,3,5-triazin], the ED50 [1] was 32 mg/kg, the “Geller Ratte prozentuale Zunahme der angenommenen Belohnungen (Milch)” value (Wistar Ratten [2]; 3 mg/kg p.o.) was 91% and the “Geller Ratte prozentuale Zunahme der angenommenen Belohnungen (Milch)” value (Wistar Ratten [2]; 10 mg/kg p.o.) was 97%. For the same compound, the “Geller Ratte prozentuale Zunahme der angenommenen Belohnungen (Milch)” value (Wistar Ratten [2]; 30 mg/kg p.o.) was 382%, the minimal effective dose (Wistar Ratten [2]) was 3 mg/kg and the ED50 [3] was 4.2 mg/kg. For the same compound, the “Ptz Maus ED 50” value ([3]; 60 min) was 2.1 mg/kg, the minimal effective dose (Wistar Ratten [4]) was 10 mg/kg and the change in vivo at 10 mg/kg (Wistar Ratten [4]) was 63%.

Work on `CC(C)(C)Nc1nc(NC(C)(C)C)nc(N2CCCC2)n1` [Beispiel 2, 2,4-Bis-(tert.butylamino)-6-pyrrolidino-1,3,5-triazin] yielded an ED50 [1] of 30 mg/kg, an ED50 [3] of 2.4 mg/kg and a minimal effective dose (Wistar Ratten [4]) of 10 mg/kg. It also gave a change in vivo at 10 mg/kg (Wistar Ratten [4]) of 61% and a change in vivo at 30 mg/kg (Wistar Ratten [4]) of 74%.

With `CC(C)(C)Nc1nc(NN2CCCCC2)nc(NC(C)(C)C)n1` [Beispiel 3, 2,4-Bis-(tert.butylamino)-6-(piperidino-amino)-1,3,5-triazin] the ED50 [1] was 30 mg/kg, the ED50 [3] was 3.2 mg/kg and the minimal effective dose (Wistar Ratten [4]) was 10 mg/kg. It also gave a change in vivo at 10 mg/kg (Wistar Ratten [4]) of 75% and a change in vivo at 30 mg/kg (Wistar Ratten [4]) of 87%.

With `CC(C)(C)Nc1nc(NN2CCOCC2)nc(NC(C)(C)C)n1` [Beispiel 4, 2,4-Bis-(tert.butylamino)-6-(morpholino-amino)-1,3,5-triazin] the ED50 [1] was 30 mg/kg, the “Geller Ratte prozentuale Zunahme der angenommenen Belohnungen (Milch)” value (Wistar Ratten [2]; 2,5 mg/kg p.o.) was 22% and the minimal effective dose (Wistar Ratten [2]) was 2.5 mg/kg. The ED50 [3] was 8.3 mg/kg, the minimal effective dose (Wistar Ratten [4]) was 10 mg/kg and the change in vivo at 10 mg/kg (Wistar Ratten [4]) was 82%.

Compound `CC(C)(C)Nc1nc(NC(C)(C)C)nc(-n2ccnc2)n1` [Beispiel 5] has an ED50 [1] of 30 mg/kg, an ED50 [3] of 12.2 mg/kg and a minimal effective dose (Wistar Ratten [4]) of 30 mg/kg. It also gave a change in vivo at 30 mg/kg (Wistar Ratten [4]) of 34%.

Work on `CN(C)Nc1nc(NC(C)(C)C)nc(NC(C)(C)C)n1` [Beispiel 6, 2,4-Bis-(tert.butylamino)-6-(Nʹ-dimethylhydrazino)-1,3,5-triazin] yielded an ED50 [1] of 20.7 mg/kg, a minimal effective dose (Wistar Ratten [2]) of 10 mg/kg and an ED50 [3] of 10 mg/kg. It also gave a minimal effective dose (Wistar Ratten [4]) of 10 mg/kg and a change in vivo at 10 mg/kg (Wistar Ratten [4]) of 103%.

`CCN(CC)c1nc(NC(C)(C)C)nc(NC(C)(C)C)n1` [Beispiel 7, 2,4-Bis-(tert.butylamino)-6-diethylamino-1,3,5-triazin] was tested, and the ED50 [1] was 14.5 mg/kg, the ED50 [3] was 6.9 mg/kg and the minimal effective dose (Wistar Ratten [4]) was 30 mg/kg. It also gave a change in vivo at 30 mg/kg (Wistar Ratten [4]) of 101%.

`CC(C)Nc1nc(NC(C)(C)C)nc(NC(C)(C)C)n1` [Beispiel 8, 2,4-Bis-(tert.butylamino)-6-isopropylamino-1,3,5-triazin] was tested, and the ED50 [1] was 46.6 mg/kg, the “Geller Ratte prozentuale Zunahme der angenommenen Belohnungen (Milch)” value (Wistar Ratten [2]; 10 mg/kg p.o.) was 76% and the “Geller Ratte prozentuale Zunahme der angenommenen Belohnungen (Milch)” value (Wistar Ratten [2]; 30 mg/kg p.o.) was 91%. The minimal effective dose (Wistar Ratten [2]) was 10 mg/kg, the ED50 [3] was 2.3 mg/kg and the minimal effective dose (Wistar Ratten [4]) was 10 mg/kg. It also gave a change in vivo at 10 mg/kg (Wistar Ratten [4]) of 154% and a change in vivo at 30 mg/kg (Wistar Ratten [4]) of 230%.

Work on `CC(C)(C)Nc1nc(NC2CCCC2)nc(NC(C)(C)C)n1` [Beispiel 9, 2,4-Bis-(tert.butylamino)-6-cyclopentylamino-1,3,5-triazin] yielded an ED50 [1] of 24.7 mg/kg, an ED50 [3] of 10.3 mg/kg and a minimal effective dose (Wistar Ratten [4]) of 30 mg/kg. It also gave a change in vivo at 30 mg/kg (Wistar Ratten [4]) of 68%.

With `CC(C)C(C)Nc1nc(NC(C)(C)C)nc(NC(C)(C)C)n1` (stereo not drawn) [Beispiel 10, 2,4-Bis-(tert.-butylamino)-6-(1,2-dimethylpropylamino)-1,3,5-triazin] the ED50 [1] was 19.7 mg/kg, the ED50 [3] was 30 mg/kg and the minimal effective dose (Wistar Ratten [4]) was 30 mg/kg. For the same compound, the change in vivo at 30 mg/kg (Wistar Ratten [4]) was 61%.
